# Test results: article PMC3573960 (Molecular Neurodegeneration, 2012)
# Read-outs that look alike come from different tables or passages of the source. Marks after values point to notes of the source that are not given here.
# How the values were obtained:
# [1] = MTS cytotoxicity assay in rat primary neocortical cultures; type: cell-based; conditions: CD, primary neocortical cultures from E17 rat embryos
# Experimental: Primary cultures were established from the neocortex of E17 rat embryos obtained from timed pregnant CD rats (Charles River Laboratories, Wilmington, MA). Following tissue dissection and trituration, the cultures were suspended in Neurobasal™ medium (Invitrogen) supplemented with 10% horse serum (Sigma-Aldrich) and 520 μM L-glutamine. Cells were plated at 50,000 cells/well in Costar 96-well poly-D-lysine-coated plates. Following incubation at 37°C and 5% CO2 for 4–5 h, the plating medium was exchanged with Neurobasal® medium with 2% B-27® supplement (Invitrogen), 520 μM of L-glutamine, and 1% penicillin-streptomycin. […] Cultures were incubated with compound for 24 h for analysis of Aβ peptides by sandwich ELISA and cytotoxicity by MTS assay.
# [2] = test system: Aph1AL containing γ-secretase complexes; assay: Cell-free AICD production from APP β-CTF (Western blot); type: biochemical, murine; conditions: up to 100 μM
# Experimental: DAPT was used as a reference positive control for the assay. For each assay condition, a 5-μL microsomal fraction, containing 1% CHAPSO (3-[(3-cholamidopropyl)dimethylammonio]-2-hydroxy-1-propanesulfonate) from murine embryonic fibroblasts (MEF) lacking the Aph-1A, Aph-1B, and Aph-1C genes (triple knock out) and rescued with Aph-1AL, was prepared in a reaction mixture of 5 μL substrate (recombinant APP β-CTF 3-Flag-tagged) at 0.8 μM, 0.0125% phosphatidylethanolamine, 0.1%, phosphatidylcholine, 0.05% sphingomyelin, and 8.9 μL PIPES (piperazine-N,N′-bis[−ethanesulfonic acid]) buffer. […] For detection of AICD, one-half of the reaction mixture was purified by a methanol-chloroform extraction in order to remove lipids and hydrophobic proteins (e.g., APP β-CTF). This purified fraction was further analyzed by SDS-PAGE and Western blotting. AICD was detected with an ANTI-FLAG® antibody (Sigma-Aldrich). The other half of the reaction mixture was used to analyze the levels of Aβ1-40 and Aβ1-42 by AlphaLisa (Perkin Elmer, Waltham, MA).
# γ-secretase = assay: APP CTF accumulation in H4-APP751 cell lysates (Western blot); type: cell-based, human; conditions: H4-APP751 cells, 16 h
# Text: Cells were lysed in situ and the resulting lysate cleared of nuclei by centrifugation, as described elsewhere. Samples were fractionated by SDS-PAGE on a 12% NuPage gel (Invitrogen), transferred to a nitrocellulose membrane, and immunoblotted with an anti-APP-CTF antibody (Sigma-Aldrich).
# HEK293 cells = assay: CellTiter-Blue cell viability in HEK293 cells expressing NotchΔE; type: cell-based, human; conditions: up to 30 μM
# [3] = Measurement of EVP-0015962 in brain (LC-MS/MS); type: in vivo, mouse; conditions: for range of brain concentrations: C57BL/6 mice, 3 or 7 days; for concentration at 50 weeks: male, mouse, brain (cerebellum), oral
# Experimental: Mice were placed on the food formulations for 3 or 7 days and were euthanized, as described above, approximately 1 h after the onset of the light cycle.
# (§1) Male Tg2576 and WT mice were both derived from crosses of male Tg2576 mice and female B6SJLF1 mice (Taconic) and were singly housed upon arrival. […] Some animals were euthanized as described above. For histological studies, a subset of mice were euthanized by CO2 asphyxiation and transcardially perfused with cold 0.9% NaCl. […] The left cerebral hemisphere was cut into 2 pieces, weighed, and frozen.
# Cerebellums were homogenized in a Mini-BeadBeater (Biospec Products, Inc., Bartlesville, OK).
# Tg2576 mice = conditions: mean (sem)
# Text: as §1
# The right hemispheres were sectioned at 20 μm in the sagittal plane. From 12 levels, 7 sections were retained and processed. Aβ plaque load was quantified in sections doubly stained by immunohistochemistry with 6E10 antibody (N-terminal human Aβ, aa 1–16) and by ThioflavinS. Astrocytes were immunostained using a primary rabbit polyclonal antibody against GFAP (Dako, Glostrup, Denmark) and a fluorescently labelled secondary Cy2 antibody (Jackson ImmunoResearch Laboratories, West Grove, PA). Activated microglia were immunostained using a rat anti-murine CD11b primary antibody (AbD Serotec, Kidlington, UK) and a fluorescently labelled secondary Cy3 antibody (Jackson ImmunoResearch Laboratories). Astrocytes and microglia were labelled in a double incubation and sections were counterstained with DAPI to visualize cell nuclei.
# Hippocampus and neocortex were measured separately, and the percent area of immunoreactivity or ThioflavinS staining per brain region was evaluated using automated image analysis software (Image Pro Plus, v. 6.2, Media Cybernetics, Bethesda, MD). Numbers and sizes of Aβ deposits were also counted automatically. Measurements from 5 sections per mouse were averaged and the individual mouse average was used to calculate the group means.
# Measured LogD = type: physicochemical
# [4] = MTS cytotoxicity assay in H4-APP751 cells; conditions: human
# Experimental: Cytotoxicity was evaluated using CellTiter 96® AQueous One Solution Cell Proliferation Assay (MTS Assay, Promega, Madison, WI) according to the manufacturer’s protocol.
# γ-secretase (NotchΔE) = assay: NICD production (S3 cleavage of NotchΔE) in transfected HEK293 cells; conditions: HEK293 cells expressing NotchΔE, 20 h, up to 30 μM
# Experimental: HEK293 cells (700,000 cells per assay condition) were transiently transfected with a NotchΔE, myc-tagged construct to produce a truncated Notch1 substrate, which is constitutively cleaved by γ-secretase (S3 cleavage) [62]. Control transfections were performed with an empty vector. […] The amounts of NICD and total Notch were quantified and NICD was expressed as a percentage of total Notch. The DMSO control condition was set at 100%. Cell viability was determined using the CellTiter-Blue® Cell Viability Assay (Promega).
# γ-secretase (EphA4) = assay: EphA4 CTF accumulation in rat primary neocortical cultures (Western blot); conditions: 24 h, up to 10 μM
# Experimental: Protein concentration of the lysate was determined by the BCA method, and 30 μg of total protein were loaded on a 10% Bis-Tris gel (Invitrogen). EphA4 CTF was visualized using an anti-EphA4-CTF antibody (Abnova, Walnut, CA) and an IRDye800CW® secondary antibody (Rockland Immunochemicals, Inc., Gilbertsville, PA). Detection was performed using an Odyssey scanner (LiCor Biosciences) and blots quantified using ImageJ software (available at http://rsbweb.nih.gov/ij).
smiles,measurement,setting,value
"O=C(O)[C@H](CC1CCC1)c1cc(Cl)c(OCC(F)(F)F)c(-c2ccc(C(F)(F)F)cc2)c1 [EVP-0015962, (R)-2-(5-chloro-6-(2,2,2-trifluoroethoxy)-4’-(trifluoromethyl)biphenyl-3-yl)-3-cyclobutylpropanoic acid]",IC50 at 24 h,[1],> 30 µM
same,production of AICD from APP β-CTF,[2],did not prevent
same,Full length APP,γ-secretase; 1 nM to 10 μM,not altered
same,accumulation of APP α- or β-CTFs,γ-secretase; concentrations up to 10 μM,did not cause the accumulation
same,cell viability,HEK293 cells,did not affect
same,range of brain concentrations,[3]; food formulation 20 mg/kg/day,1.5 to 3.1 µM
same,range of brain concentrations,[3]; food formulation 60 mg/kg/day,4.9 to 9.7 µM
same,accumulation or cytochrome P450 enzyme induction (from brain concentrations),"[3]; Tg2576 mice, 50 weeks vs short-term treatments",did not demonstrate accumulation or cytochrome P450 enzyme induction
same,concentration at 50 weeks,"[3]; Tg2576 mice, 20 mg/kg/day in food",2.5 ± 0.2 µM
same,concentration at 50 weeks,"[3]; Tg2576 mice, 60 mg/kg/day in food",8.3 ± 0.6 µM
same,oral bioavailability,[3]; mice,orally bioavailable
same,6E10 Aβ plaque Number/mm^2,"Tg2576 mice; hippocampus, 20 mg/kg/day",61.0 (12.2)* percent of control
same,6E10 Aβ plaque Size (μm^2),"Tg2576 mice; hippocampus, 20 mg/kg/day",99.4 (15.7) percent of control
same,6E10 Aβ plaque percent area,"Tg2576 mice; hippocampus, 20 mg/kg/day",62.1 (13.2)* percent of control
same,ThioflavinS Aβ plaque Number/mm^2,"Tg2576 mice; hippocampus, 20 mg/kg/day",55.2 (15.6)* percent of control
same,ThioflavinS Aβ plaque Size (μm^2),"Tg2576 mice; hippocampus, 20 mg/kg/day",56.5 (16.3) percent of control
same,ThioflavinS Aβ plaque percent area,"Tg2576 mice; hippocampus, 20 mg/kg/day",40.7 (16.9)** percent of control
same,6E10 Aβ plaque Number/mm^2,"Tg2576 mice; hippocampus, 60 mg/kg/day",53.9 (16.8)* percent of control
same,6E10 Aβ plaque Size (μm^2),"Tg2576 mice; hippocampus, 60 mg/kg/day",104.1 (11.6) percent of control
same,6E10 Aβ plaque percent area,"Tg2576 mice; hippocampus, 60 mg/kg/day",53.1 (15.2)* percent of control
same,ThioflavinS Aβ plaque Number/mm^2,"Tg2576 mice; hippocampus, 60 mg/kg/day",50.7 (12.8)* percent of control
same,ThioflavinS Aβ plaque Size (μm^2),"Tg2576 mice; hippocampus, 60 mg/kg/day",58.9 (27.0) percent of control
same,ThioflavinS Aβ plaque percent area,"Tg2576 mice; hippocampus, 60 mg/kg/day",27.3 (6.5)** percent of control
same,6E10 Aβ plaque Number/mm^2,"Tg2576 mice; neocortex, 20 mg/kg/day",65.2 (8.8) percent of control
same,6E10 Aβ plaque Size (μm^2),"Tg2576 mice; neocortex, 20 mg/kg/day",105.5 (8.8) percent of control
same,6E10 Aβ plaque percent area,"Tg2576 mice; neocortex, 20 mg/kg/day",69.2 (9.7) percent of control
same,ThioflavinS Aβ plaque Number/mm^2,"Tg2576 mice; neocortex, 20 mg/kg/day",64.3 (8.0) percent of control
same,ThioflavinS Aβ plaque Size (μm^2),"Tg2576 mice; neocortex, 20 mg/kg/day",87.8 (12.2) percent of control
same,ThioflavinS Aβ plaque percent area,"Tg2576 mice; neocortex, 20 mg/kg/day",64.3 (14.3) percent of control
same,6E10 Aβ plaque Number/mm^2,"Tg2576 mice; neocortex, 60 mg/kg/day",71.3 (15.0) percent of control
same,6E10 Aβ plaque Size (μm^2),"Tg2576 mice; neocortex, 60 mg/kg/day",88.5 (5.4) percent of control
same,6E10 Aβ plaque percent area,"Tg2576 mice; neocortex, 60 mg/kg/day",65.3 (16.3) percent of control
same,ThioflavinS Aβ plaque Number/mm^2,"Tg2576 mice; neocortex, 60 mg/kg/day",59.6 (14.1) percent of control
same,ThioflavinS Aβ plaque Size (μm^2),"Tg2576 mice; neocortex, 60 mg/kg/day",58.1 (10.6)* percent of control
same,ThioflavinS Aβ plaque percent area,"Tg2576 mice; neocortex, 60 mg/kg/day",29.9 (7.3)* percent of control
same,logD,Measured LogD,3.88
same,IC50,[4],5.56 ± 0.51 µM
same,levels of NICD produced,γ-secretase (NotchΔE),did not affect
same,EphA4 CTF accumulation,γ-secretase (EphA4),did not result in EphA4 CTF accumulation
